Experimental data taken from publication PMC12040169 (PLOS Biology, 2025).

Assay: in vitro
Conditions: human, hela cells, % viability

In order of rising viability at 28.5 h, 10 µM:
1. Cc1c(-c2cc(-c3cnn(C)c3C)[nH]n2)cnn1C [CBK288013]  76%
2. O=c1c2[nH]cc(-c3ccccc3)c2ncn1CCc1ccccc1 [CBK288025]  76.9%
3. CCCCNc1nnc(-c2nn(C)cc2Cl)s1 [CBK288021]  79.4%
4. O=C(NCc1ccccn1)c1nn[nH]c1Nc1cccc(Cl)c1 [CBK288030]  79.4%
5. c1ccc2c(c1)NC(c1ccncc1)n1nnnc1-2 (stereo not drawn) [CBK288171]  82.5%
6. CC1CCCN(c2nc3nc[nH]c(=O)c3s2)C1 (stereo not drawn) [CBK288120]  83.4%
7. c1csc(-c2ccn3c(n2)nc2ccccc23)c1 [CBK287976]  83.9%
8. O=c1[nH]c2n[nH]c(=O)n2c2c(-c3ccccc3)c[nH]c12 [CBK288054]  84.2%
9. COc1cnc(C(=O)NCc2ccccc2Cl)cc1O [CBK287993]  84.6%
10. COCc1cc(=O)n2ncc(-c3ccccc3)c2[nH]1 [CBK288168]  84.6%
11. O=C1CC(c2noc(-c3ccncc3)n2)CN1c1ccccc1 (stereo not drawn) [CBK288043]  85.4%
12. Cc1ccc(-c2cc(C(=O)NCc3ccc(F)cc3Cl)n[nH]2)cc1 [CBK288102]  85.6%
13. CCOc1ccc(-c2cc(C(=O)NCc3cc(OC)ccc3OC)n[nH]2)cc1 [CBK288116]  85.7%
14. CC(=O)Nc1ccc(-c2nc3cnccc3o2)cc1 [CBK287975]  85.9%
15. O=C(O)Cc1cnnn1-c1ccc(Cl)cc1Cl [CBK288035]  86%
16. CN(C(=O)c1cc(-c2cccs2)[nH]n1)c1ccccc1 [CBK288115]  86.1%
17. O=C(O)c1cc(-c2ccc(OC(F)F)cc2)[nH]n1 [CBK288022]  87.1%
18. Cc1ccc(Nc2ncc3c(n2)CCCC3=O)cc1 [CBK288143]  87.6%
19. C=C(C)Cn1c(=O)nc(N)c2c3c(sc21)CCC3 [CBK287986]  88.2%
20. Cc1ccc(C(=O)Nc2noc3ccccc23)cc1 [CBK288124]  88.9%
21. CC(C)(C)NC(=O)COc1ccc(CNc2nc[nH]n2)cc1 [CBK288179]  89.3%
22. N#Cc1ccc(C2NC(=O)c3ccccc3O2)cc1 (stereo not drawn) [CBK288180]  89.3%
23. O=C(Nc1ccccn1)c1cc(O)c(OCc2ccccc2)cn1 [CBK287989]  89.5%
24. O=C(NC1CCCC1)c1ccc2c(=O)[nH]cnc2c1 [CBK287990]  90.1%
25. COCCNc1nc2c([nH]1)c(=O)n(C)c(=O)n2C [CBK288104]  90.3%
26. O=C(CC1C(=O)Nc2ncnn21)Nc1ccccc1 (stereo not drawn) [CBK288071]  90.7%
27. Cc1noc(C2=CC=CN3C2=NNC32CCNCC2)n1 [CBK288058]  91%
28. COc1ccc(Nc2n[nH]c3nc(C)cc(=O)n23)cc1 [CBK288117]  91.1%
29. CC(=O)Nc1ccc(-c2nc3ncccc3o2)cc1C [CBK288132]  91.1%
30. CCCCNc1nnc(-c2cc(C)nn2C)s1 [CBK288019]  91.5%
31. COc1ccc(Cn2cnc3[nH]ncc3c2=O)cc1 [CBK288049]  91.7%
32. O=C(c1cc(-c2cccs2)[nH]n1)N1CCCCCC1 [CBK288108]  92.1%
33. O=C1CCCC2=C1C(c1ccc(OCc3ccccc3)cc1)c1c([nH][nH]c1=O)N2 (stereo not drawn) [CBK288149]  92.1%
34. Cc1cc(F)ccc1NC(=O)c1n[nH]cc1Cl [CBK288020]  92.4%
35. CCNc1nnc(-c2c(Cl)c(C)nn2C)s1 [CBK288014]  92.5%
36. CCOc1ccc(Cl)cc1CNc1nnnn1CC [CBK288128]  92.9%
37. O=C1CCCC2=C1C(c1ccccc1Cl)n1nnnc1N2 (stereo not drawn) [CBK288151]  93%
38. COc1cc(NC(=O)c2nc[nH]n2)c(OC)cc1Cl [CBK288170]  93%
39. Cc1nc2c3c(sc2c(=O)[nH]1)NC(=O)CC3c1ccccc1 (stereo not drawn) [CBK288094]  93.1%
40. O=C1NNC=Cc2c1cnc1nc(C(F)(F)F)nn21 [CBK288156]  93.3%
41. Cc1c(C2CC(C(F)(F)F)n3nccc3N2)cnn1C (stereo not drawn) [CBK288015]  93.9%
42. CCCNc1cc(C)c(C#N)c2nc3ccccc3n12 [CBK288097]  94%
43. Oc1cc(Cc2ccccc2)cnc1CN1CCOCC1 [CBK288173]  94%
44. Cc1cc(C)nc(NC(=N)NCc2ccccc2)n1 [CBK288157]  94.2%
45. N#Cc1cc2c(=O)n(-c3ccccn3)ccc2[nH]c1=O [CBK288119]  94.5%
46. c1cncc(-c2noc(-c3cc(C4CC4)[nH]n3)n2)c1 [CBK287973]  94.7%
47. CCOc1cc(O)c(-c2nc(N)ncc2-c2ccc3c(c2)OCCO3)cc1CC [CBK288174]  94.7%
48. O=C(Nc1ccccc1-n1cnnn1)c1ccccc1Cl [CBK287994]  95%
49. O=C(O)c1nnn(-c2ccccc2)c1-c1ccncc1 [CBK288041]  95.1%
50. COc1cccc(C2C=C(c3cccnc3)Nc3ncnn32)c1OC (stereo not drawn) [CBK288062]  95.1%
51. Cn1c(=O)n(C)c2cc(CNCc3ccccn3)ccc21 [CBK288118]  95.4%
52. NC(=O)Nc1ccc2c(c1)ncn2C1CCCCC1 [CBK288176]  95.6%
53. CCN1C(=O)c2[nH]nc(-c3ccccc3O)c2C1c1cccc(O)c1 (stereo not drawn) [CBK288159]  95.9%
54. Cc1nn(-c2ccccc2)c(Cl)c1C1NC(=O)c2c(sc(C)c2C)N1 (stereo not drawn) [CBK288086]  96%
55. CCCCc1ccc(Nc2ncnc3nc[nH]c23)cc1 [CBK288006]  96.3%
56. Fc1ccc(C2=Nn3cnnc3SC2)c(F)c1 [CBK288078]  97%
57. Cc1ccccc1-c1cc(=O)[nH]c(Nc2ccccc2)n1 [CBK288142]  97%
58. O=c1[nH]cnc2c1cnn2Cc1ccccc1Cl [CBK287999]  97.1%
59. COc1ccc(-c2cnn3c(N)c4c(nc23)CCC4)cc1 [CBK287987]  97.4%
60. Cc1ccc(C(=O)n2nc(-c3cccnc3)nc2N)cc1 [CBK288172]  97.4%
61. Cn1c(=O)c2c(nc(NCCOCCO)n2C)n(C)c1=O [CBK288164]  98.2%
62. CN(C(=O)CSc1ncccc1C#N)c1ccccc1 [CBK288044]  98.3%
63. O=C(c1n[nH]c2c1CCCC2)N1CC(=O)N(CCc2ccccc2)C(=O)C1 [CBK288110]  98.3%
64. O=c1[nH]c2ccccc2n1CCOc1ccccc1 [CBK288008]  98.5%
65. COc1cc(C2C3=C(COC3=O)Nc3[nH]nc(C)c32)ccc1O (stereo not drawn) [CBK288146]  98.5%
66. CCN1CCN(c2ncnc3sc(C)c(C)c23)CC1 [CBK288101]  98.6%
67. CCOc1ccc(Nc2cc(Cl)nc(N)n2)cc1 [CBK288069]  98.7%
68. Cc1nc(-c2ccccc2F)sc1C(=O)Nc1ccccn1 [CBK287979]  98.8%
69. COc1ccc(CNc2nc(C)n[nH]2)cc1Cl [CBK288036]  98.9%
70. COc1ccccc1NC(=O)c1cn(Cc2ccc(N)cc2)cn1 [CBK288045]  99.5%
71. O=c1c2nnc3ncnn3c2ccn1-c1ccccc1 [CBK288075]  99.5%
72. COc1ccccc1CNc1ncnc2[nH]ncc12 [CBK288100]  99.5%
73. Cc1ccc(Sc2nccn3c(=O)[nH]nc23)c(C)c1 [CBK288055]  101%
74. Cc1ccc(-n2c(C)c(C)c3c(NCCO)cnnc32)cc1 [CBK288162]  101%
75. Cc1ccc(OCC(=O)Nc2ccc3c(c2)nc2n3CCOC2)cc1 [CBK288005]  102%
76. Cc1ccc(C)c(-c2nc(-c3cccnc3)no2)c1 [CBK288018]  102%
77. COc1ccc(C(C)NC(=O)c2cn[nH]c2-c2ccc(Cl)cc2)cc1 (stereo not drawn) [CBK288065]  102%
78. COc1ccc(C2(C(=O)NCc3ccncc3)CCOCC2)cc1 [CBK287991]  103%
79. COc1cc(-c2nc(N)n[nH]2)cc(OC)c1OC [CBK288077]  103%
80. CCOc1cc(CNc2nc[nH]n2)cc(Cl)c1OCc1ccccc1F [CBK288088]  103%
81. COc1ccc(CNc2nc[nH]n2)c(OC)c1OC [CBK288129]  103%
82. COc1ccc(NC2=NN(c3ccccc3)C(=O)C2)cc1 [CBK288085]  104%
83. CCCCn1nnnc1NCc1cccc(OC)c1OC [CBK288091]  104%
84. O=C(NCCc1ccccc1)c1cc(-c2ccccc2Cl)[nH]n1 [CBK288113]  105%
85. O=C(Nc1ccn(C23CC4CC(CC(C4)C2)C3)n1)c1ccco1 [CBK288023]  106%
86. Cc1ccc(-c2nc3ncc(C#N)c(N)n3n2)cc1 [CBK288153]  106%
87. Cc1n[nH]c(NCc2cccc(Cl)c2Cl)n1 [CBK288037]  107%
88. CCOc1ccc(-c2c(C3CC3)n[nH]c2N)cc1OCC [CBK288177]  107%
89. Cc1ccc(C2CC(=O)Nc3nc(-c4ccccc4)[nH]c(=O)c32)c(C)c1 (stereo not drawn) [CBK287998]  108%
90. CSc1nc2n(n1)C(C)C1=C(CCCC1=O)N2 (stereo not drawn) [CBK288169]  108%
91. O=c1[nH]nc2c3c(nc(-c4ccncc4)n12)CCCC3 [CBK288029]  109%
92. O=C1CC(c2cc(F)ccc2F)c2c(-c3ccc(Cl)cc3)n[nH]c2N1 (stereo not drawn) [CBK288000]  110%
93. O=C(NCc1nnc2ccccn12)c1ccccc1 [CBK288064]  110%
94. Nc1cc(=O)[nH]c(=O)n1Cc1ccc(Cl)cc1 [CBK288002]  112%
95. O=C(Nc1ccncc1)c1c(O)c2ccccc2[nH]c1=O [CBK288017]  112%
96. Cc1ccc(NC(=O)C2CC(=O)Nc3nc4ccccc4n32)cc1 (stereo not drawn) [CBK288134]  113%
97. O=C(CCc1nc2ccccc2s1)Nc1nc2ccccc2[nH]1 [CBK287988]  114%
98. COc1cccc(CNC(=O)CCc2nc3ccccc3[nH]2)c1 [CBK288003]  115%
99. COc1ccccc1CCC(=O)Nc1cnn(C)c1 [CBK287995]  117%
